Results from ChEMBL document CHEMBL1201862, “PubChem BioAssay data set” (2004).
Activity calls are given as the source filed them.

Key:
[1] = Luminescence Cell-Based Dose Response HTS to Identify Inhibitors of 5'UTR Stem-Loop Driven Prion Protein mRNA Translation in H4 Neuroglioblastoma Cells. [Related pubchem assays: 1827 (Project Summary), 1813 (Primary HTS)]; type: functional
[2] = alpha-synuclein stem-loop luciferase translation blockers – H4 neuroglioma cells, luminescence, confirmation (AID 1988); type: functional, cell-based
[3] = target: T1, Calpain-2 catalytic subunit (Sus scrofa, UniProt P43367); experiment: m-calpain protease blockers, concentration series – biochemical, fluorogenic peptide substrate, dose response (AID 1420); type: functional
T1 sequence (P43367 whole entry): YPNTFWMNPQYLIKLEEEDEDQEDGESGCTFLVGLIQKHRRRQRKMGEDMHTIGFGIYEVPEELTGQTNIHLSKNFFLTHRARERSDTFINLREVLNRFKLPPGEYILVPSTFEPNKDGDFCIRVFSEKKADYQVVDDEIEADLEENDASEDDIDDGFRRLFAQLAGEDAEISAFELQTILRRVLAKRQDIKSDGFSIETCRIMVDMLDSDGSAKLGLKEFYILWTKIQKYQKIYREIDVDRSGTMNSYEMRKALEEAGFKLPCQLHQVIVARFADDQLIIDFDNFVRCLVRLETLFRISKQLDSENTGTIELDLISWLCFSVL

[4] = target: T2, Estrogen receptor beta (Homo sapiens, UniProt Q92731);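 further: recombinant ER-beta bound to coactivator SRC1 peptide in presence of estradiol agonist; inhibitors block coactivator peptide binding and lower the FRET signal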
T2 sequence (Q92731 whole entry): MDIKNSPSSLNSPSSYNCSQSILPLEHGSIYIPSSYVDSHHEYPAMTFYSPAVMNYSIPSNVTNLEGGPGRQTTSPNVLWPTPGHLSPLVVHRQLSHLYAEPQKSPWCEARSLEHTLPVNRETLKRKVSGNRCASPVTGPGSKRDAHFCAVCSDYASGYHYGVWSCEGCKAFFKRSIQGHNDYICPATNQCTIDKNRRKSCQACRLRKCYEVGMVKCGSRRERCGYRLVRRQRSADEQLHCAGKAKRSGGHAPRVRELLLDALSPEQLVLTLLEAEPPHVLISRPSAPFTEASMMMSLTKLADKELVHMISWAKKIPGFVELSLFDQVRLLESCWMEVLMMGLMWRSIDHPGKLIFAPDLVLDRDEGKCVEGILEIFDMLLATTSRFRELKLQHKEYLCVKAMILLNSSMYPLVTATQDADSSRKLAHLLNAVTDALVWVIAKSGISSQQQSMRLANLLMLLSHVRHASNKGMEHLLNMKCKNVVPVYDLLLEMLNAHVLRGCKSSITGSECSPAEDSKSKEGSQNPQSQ

[5] = target: T2, Estrogen receptor beta; experiment: blockers of SRC-3 recruitment to ERβ – biochemical, ELISA, streptavidin-HRP readout, orthogonal assay, confirmation (AID 1060)
[6] = Luminescence Cell-Based Dose Retest to Confirm Inhibitors of Cancer Stem Cells. [Related pubchem assays (depositor defined):AID2717, AID2721]; type: functional; details: Homo sapiens
[7] = HPDE-C7 pancreatic duct cell viability loss – fluorescence, HTS (AID 430); type: functional, cell-based; details: Homo sapiens
[8] = viability loss of HPDE-C7K cells – cell-based, fluorescence, HTS, primary screen (AID 431); type: functional; details: Homo sapiens
[9] = target: T3, Rac GTPase-activating protein 1 (Homo sapiens, UniProt Q9H0H5); experiment: blockers of MgcRacGAP-driven Rac1 GTP hydrolysis – biochemical, ADP Hunter fluorescence, primary and confirmatory, confirmation (AID 624330); type: functional
T3 sequence (Q9H0H5 whole entry): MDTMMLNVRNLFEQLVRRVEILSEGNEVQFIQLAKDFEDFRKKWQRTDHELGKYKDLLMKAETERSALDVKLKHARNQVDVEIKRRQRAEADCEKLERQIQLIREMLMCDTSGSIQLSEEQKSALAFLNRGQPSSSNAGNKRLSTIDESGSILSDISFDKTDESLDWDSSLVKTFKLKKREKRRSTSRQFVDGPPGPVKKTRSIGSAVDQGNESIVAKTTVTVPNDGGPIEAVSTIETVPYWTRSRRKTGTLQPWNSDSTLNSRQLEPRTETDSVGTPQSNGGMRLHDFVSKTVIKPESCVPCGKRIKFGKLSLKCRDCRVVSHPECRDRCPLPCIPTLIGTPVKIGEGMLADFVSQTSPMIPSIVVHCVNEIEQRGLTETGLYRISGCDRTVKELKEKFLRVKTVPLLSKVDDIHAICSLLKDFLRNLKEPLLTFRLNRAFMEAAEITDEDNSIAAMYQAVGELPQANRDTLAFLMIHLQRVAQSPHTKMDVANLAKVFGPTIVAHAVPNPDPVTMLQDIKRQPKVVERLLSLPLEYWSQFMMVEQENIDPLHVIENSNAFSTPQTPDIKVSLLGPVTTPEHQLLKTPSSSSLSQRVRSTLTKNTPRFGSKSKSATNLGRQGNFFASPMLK

[10] = target: FAD-linked sulfhydryl oxidase ALR (Homo sapiens, UniProt P55789); experiment: ALR-catalysed DTT oxidation blockers – biochemical, H2O2 detection, luminescence, cherry-pick, dose response (AID 493248)
Sequence of FAD-linked sulfhydryl oxidase ALR (P55789 whole entry): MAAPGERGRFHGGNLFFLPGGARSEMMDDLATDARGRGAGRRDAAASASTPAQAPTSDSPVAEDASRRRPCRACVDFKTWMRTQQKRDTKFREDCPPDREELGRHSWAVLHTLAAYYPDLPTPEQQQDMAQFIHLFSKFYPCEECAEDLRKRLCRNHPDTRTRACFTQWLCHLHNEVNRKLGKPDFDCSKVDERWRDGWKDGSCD

[11] = IC50 of Artemis nuclease activity blockers – biochemical, fluorescence intensity, dose response (AID 720701); type: functional;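 further: Artemis endonuclease enzyme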
[12] = off-target signal loss in HeLa-CEM21 co-culture – HeLa F-luc CTL cells, cherry-picked, counter-screen for HIV-1 Env fusion inhibitor project, dose response (AID 652040); type: functional, cell-based;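 further: potency for signal decrease marking cytotoxic or nonspecific inhibition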
[13] = HIV-1 AD8 envelope cell-cell fusion blockers – cherry-pick, dose response (AID 652062); type: functional, cell-based;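 further: luciferase signal from cell-cell fusion driven by HIV-1 clade B AD8 Env; potency is for inhibitors of fusion seen as a drop in luminescence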
[14] = blockers of HIV-1 ZM109 envelope-driven cell-cell fusion – HeLa effector, CEM target cells, luciferase, cherry-pick, dose response (AID 652058); type: functional, cell-based;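 further: luciferase signal from HIV-1 Env mediated cell-cell fusion of effector and target cells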
[15] = target: Mu-type opioid receptor (Homo sapiens, UniProt P35372); type: functional, cell-based;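 further: U2OS cells with beta-arrestin recruitment to OPRM1 by beta-gal complementation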
Sequence of Mu-type opioid receptor (P35372 whole entry): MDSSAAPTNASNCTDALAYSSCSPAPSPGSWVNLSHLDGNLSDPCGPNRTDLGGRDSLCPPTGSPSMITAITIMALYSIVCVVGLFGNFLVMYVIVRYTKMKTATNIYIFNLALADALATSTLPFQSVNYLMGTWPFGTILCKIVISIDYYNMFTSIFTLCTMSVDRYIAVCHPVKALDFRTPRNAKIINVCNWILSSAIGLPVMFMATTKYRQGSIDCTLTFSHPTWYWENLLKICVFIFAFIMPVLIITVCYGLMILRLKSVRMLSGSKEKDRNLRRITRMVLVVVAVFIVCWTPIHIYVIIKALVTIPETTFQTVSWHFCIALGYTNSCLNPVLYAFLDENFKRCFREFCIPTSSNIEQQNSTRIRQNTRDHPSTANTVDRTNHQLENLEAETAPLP

[16] = target: 5-hydroxytryptamine receptor 2A (Mus musculus, UniProt P35363); type: functional, cell-based;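 further: CHO-K1 cells with tagged receptor and beta-arrestin; agonist potency measured as compound-induced activation of the receptor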
Sequence of 5-hydroxytryptamine receptor 2A (P35363 whole entry): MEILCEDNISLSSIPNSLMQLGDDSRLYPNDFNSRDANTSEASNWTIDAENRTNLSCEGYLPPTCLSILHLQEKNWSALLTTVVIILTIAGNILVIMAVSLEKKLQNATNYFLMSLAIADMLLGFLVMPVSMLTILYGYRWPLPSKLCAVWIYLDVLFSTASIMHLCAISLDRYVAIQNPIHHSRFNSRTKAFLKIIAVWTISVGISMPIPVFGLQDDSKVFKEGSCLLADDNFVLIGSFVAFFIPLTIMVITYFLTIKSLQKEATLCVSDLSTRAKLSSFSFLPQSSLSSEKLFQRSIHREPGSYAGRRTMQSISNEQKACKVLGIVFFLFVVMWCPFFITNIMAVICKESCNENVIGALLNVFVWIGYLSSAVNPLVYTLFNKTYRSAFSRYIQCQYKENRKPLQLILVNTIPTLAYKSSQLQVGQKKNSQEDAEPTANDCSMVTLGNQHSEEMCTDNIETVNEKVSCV

[17] = OVCAR-3 cell viability loss – plate reader, dry powder samples, PAX8 inhibitor project, dose response (AID 743044); type: functional, cell-based
[18] = OVCAR8 cell viability loss – plate reader, dry powder samples, PAX8 project, dose response (AID 743197); type: functional, cell-based; details: OVCAR-8
[19] = target: Paired box protein Pax-8 (Homo sapiens, UniProt Q06710); experiment: PAX8 transcriptional activity inhibition in RMG-I – RMG-I cells, luciferase, cherry-pick, dose response (AID 687027); type: functional, cell-based;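 further: luciferase reporter driven by Pax8 target thyroperoxidase promoter measured by SteadyGlo luminescence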
Sequence of Paired box protein Pax-8 (Q06710 whole entry, the tested form may be a part): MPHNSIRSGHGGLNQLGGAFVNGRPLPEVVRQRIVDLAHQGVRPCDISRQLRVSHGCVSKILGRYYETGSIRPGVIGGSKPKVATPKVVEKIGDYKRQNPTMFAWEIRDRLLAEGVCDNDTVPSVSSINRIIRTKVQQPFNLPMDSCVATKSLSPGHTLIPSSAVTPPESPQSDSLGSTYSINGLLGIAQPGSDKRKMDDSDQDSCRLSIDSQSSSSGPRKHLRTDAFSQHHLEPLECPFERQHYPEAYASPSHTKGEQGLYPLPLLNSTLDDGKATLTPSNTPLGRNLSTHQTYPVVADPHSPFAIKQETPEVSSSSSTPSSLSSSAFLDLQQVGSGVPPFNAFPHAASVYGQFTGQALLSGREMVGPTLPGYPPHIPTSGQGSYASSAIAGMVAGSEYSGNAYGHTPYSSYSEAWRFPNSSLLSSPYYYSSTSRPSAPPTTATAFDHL

[20] = blockers of HIV-1 envelope-mediated cell-cell fusion – cherry-pick, dose response (AID 652057); type: functional, cell-based
[21] = DRD fibroblast viability loss – cell-based, non-viral oncogenic, luminescence, dose response (AID 1934); type: functional; details: Homo sapiens
[22] = test system: BJ; experiment: BJ-TERT fibroblast viability loss – cell-based, RAS-independent, luminescence, dose response (AID 1933); type: functional; details: Homo sapiens
[23] = test system: BJ; experiment: cells; type: functional, cell-based; details: Homo sapiens
[24] = test system: BJ; experiment: BJ-TERT-LT-ST fibroblast viability loss – cell-based, RAS-independent, luminescence, dose response (AID 1935); type: functional; details: Homo sapiens;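 further: BJ fibroblasts immortalized with TERT plus LT and ST oncogenes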
[25] = test system: BJ; experiment: growth inhibition of engineered Ras-driven BJ cells – cell-based, alamar blue fluorescence, cherrypicked samples, dose response (AID 2631); type: functional; details: Homo sapiens;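 further: confirmatory dose-response assay in RAS-dependent BJ fibroblasts engineered with TERT, LT and ST, with cytotoxicity read by fluorescence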
[26] = activation of miR-122 Renilla sensor silencing – cell-based, Huh7 psiCHECK-miR122, Renilla luciferase, cherry-picked, dose response (AID 651956); type: functional;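 further: huh7 hepatoma cells stably carrying a psiCHECK-2 miR-122 sensor plasmid; renilla luciferase signal reporting endogenous miR-122 activity after 48 h compound exposure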
[27] = target: Cytochrome P450 2C9 (Homo sapiens, UniProt P11712)
Sequence of Cytochrome P450 2C9 (P11712 whole entry): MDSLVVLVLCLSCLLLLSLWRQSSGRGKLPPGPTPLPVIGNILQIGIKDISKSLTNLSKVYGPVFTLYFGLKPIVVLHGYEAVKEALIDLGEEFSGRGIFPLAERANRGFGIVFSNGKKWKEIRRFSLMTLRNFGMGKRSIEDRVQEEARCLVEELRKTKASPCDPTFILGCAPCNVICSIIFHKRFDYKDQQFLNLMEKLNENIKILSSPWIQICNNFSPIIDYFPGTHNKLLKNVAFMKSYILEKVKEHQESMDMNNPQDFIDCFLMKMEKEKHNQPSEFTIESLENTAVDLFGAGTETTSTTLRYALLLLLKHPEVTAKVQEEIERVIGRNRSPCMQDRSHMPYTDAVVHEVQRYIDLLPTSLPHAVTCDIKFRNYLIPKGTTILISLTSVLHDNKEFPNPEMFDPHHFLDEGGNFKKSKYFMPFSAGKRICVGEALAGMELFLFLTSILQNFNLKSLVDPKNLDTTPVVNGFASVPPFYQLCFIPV

[28] = target: Cytochrome P450 2D6 (Homo sapiens, UniProt P10635);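 further: CYP2D6 member of a cytochrome P450 panel assay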
Sequence of Cytochrome P450 2D6 (P10635 whole entry): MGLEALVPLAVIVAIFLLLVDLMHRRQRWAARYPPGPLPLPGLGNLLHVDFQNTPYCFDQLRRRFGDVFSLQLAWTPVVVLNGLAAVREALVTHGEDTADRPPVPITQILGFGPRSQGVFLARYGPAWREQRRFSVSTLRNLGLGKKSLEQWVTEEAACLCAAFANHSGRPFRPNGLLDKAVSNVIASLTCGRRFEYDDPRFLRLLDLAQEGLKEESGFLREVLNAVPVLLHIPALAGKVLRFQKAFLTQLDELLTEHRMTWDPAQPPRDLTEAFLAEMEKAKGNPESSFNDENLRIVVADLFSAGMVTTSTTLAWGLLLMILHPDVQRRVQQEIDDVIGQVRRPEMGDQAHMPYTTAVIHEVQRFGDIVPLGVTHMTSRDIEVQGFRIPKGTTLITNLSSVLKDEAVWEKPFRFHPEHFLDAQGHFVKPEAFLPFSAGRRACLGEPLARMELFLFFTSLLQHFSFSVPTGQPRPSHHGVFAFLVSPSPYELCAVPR

[29] = target: T4, Ubiquitin-conjugating enzyme E2 N (Homo sapiens, UniProt P61088); type: functional;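 further: Dose-response confirmation in a TR-FRET assay detecting UBC13-driven polyubiquitin chain formation, inhibition measured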
T4 sequence (P61088 whole entry): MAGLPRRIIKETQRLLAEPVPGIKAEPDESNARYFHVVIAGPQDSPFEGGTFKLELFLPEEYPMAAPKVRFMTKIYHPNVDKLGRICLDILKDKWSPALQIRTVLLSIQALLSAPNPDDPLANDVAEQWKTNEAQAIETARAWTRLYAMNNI

[30] = target: T5, DNA repair protein RAD52 homolog (Homo sapiens, UniProt P43351); type: functional, biochemical
T5 sequence (P43351 whole entry): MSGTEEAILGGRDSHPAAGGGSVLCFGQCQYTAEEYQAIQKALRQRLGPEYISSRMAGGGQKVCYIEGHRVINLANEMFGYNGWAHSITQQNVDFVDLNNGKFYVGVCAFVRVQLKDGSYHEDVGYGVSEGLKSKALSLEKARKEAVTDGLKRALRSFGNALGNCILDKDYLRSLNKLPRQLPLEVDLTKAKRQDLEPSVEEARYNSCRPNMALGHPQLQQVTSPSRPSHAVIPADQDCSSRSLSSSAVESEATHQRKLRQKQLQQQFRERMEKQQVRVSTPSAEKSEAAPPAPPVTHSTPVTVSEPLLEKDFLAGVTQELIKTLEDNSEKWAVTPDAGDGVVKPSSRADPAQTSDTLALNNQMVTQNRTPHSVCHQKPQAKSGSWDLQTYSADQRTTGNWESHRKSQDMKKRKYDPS

[31] = viability of uninfected HEp-2 cells – cell-based, HTS, cytotoxicity control for RSV inhibitor project, dose response (AID 2410); type: functional; details: human respiratory syncytial virus

Structure (SMILES): O=[N+]([O-])c1cc(/C=N/n2cnnc2)ccc1N1CCCC1
- EC50 [1]: 16.9 µM (active)
- EC50 [2]: 9.55 µM (active)
- IC50 [3]: 36.6 µM (not active)

Structure (SMILES): O=C(Cc1cccs1)Nc1ccc(-c2nnn(CC(=O)N3CCOCC3)n2)cc1
- IC50 [4]: 2.92 µM (active)
- IC50 [5]: > 50 µM (not active)

Structure (SMILES): CCCCN(C)c1nc(-c2ccco2)c2c(c1C#N)CC(C)(C)OC2
- AC50 [6]: 7.53 µM (active)
- EC50 [7]: 13.9 µM (active)
- EC50 [8]: 13.9 µM (active)

Structure (SMILES): N#CC(C#N)=C(N)CSc1cccc[n+]1[O-]
- IC50 [3]: > 50 µM (not active)

Structure (SMILES): O=C(N/N=C/c1ccc(O)c(O)c1)C1c2ccccc2Oc2ccccc21
- IC50 [9]: 50.6 µM (active)
- AC50 [10]: 0.439 µM (active)
- IC50 [11]: > 20 µM (inactive)

Structure (SMILES): CNc1nc2c(c(=O)n(C)c(=O)n2C)n1Cc1ccccc1
- AC50 [12]: > 70 µM (inactive)
- AC50 [13]: 13.9 µM (active)
- AC50 [14]: 10.2 µM (active)

Structure (SMILES): CC(C(=O)O)c1ccc(C(=O)c2cccs2)cc1 (stereo not drawn) [SUPROFEN]
- EC50 [15]: 92.6 µM (inactive)
- EC50 [16]: 5.34 µM (active)

Structure (SMILES): COc1cccc(C#Cc2ccc3c(c2)O[C@@H](CN(C)C(=O)c2ccccn2)[C@H](C)CN([C@@H](C)CO)S3(=O)=O)c1
- AC50 [17]: 41.2 µM (active)
- AC50 [18]: 34.1 µM (active)
- AC50 [19]: 5.17 µM (active)

Structure (SMILES): CC[C@@]1(O)C(=O)OCc2c1cc1n(c2=O)Cc2cc3c(NC(=O)CN)cccc3nc2-1
- AC50 [6]: 0.281 µM (active)
- AC50 [20]: 0.618 µM (active)
- EC50 [21]: 2.4 µM (active)
- EC50 [22]: 10.3 µM (active)
- AC50 [12]: 0.896 µM (active)
- AC50 [13]: 14.6 µM (active)
- EC50 [23]: 1.46 µM (active)
- AC50 [19]: 1.11 µM (active)
- EC50 [24]: 1.2 µM (active)
- AC50 [14]: < 0.26 µM (active)
- EC50 [25]: 0.418 µM (active)

Structure (SMILES): C[C@@H]1CN([C@H](C)CO)S(=O)(=O)c2ccc(-c3ccccc3)cc2O[C@@H]1CN(C)C(=O)c1ccc2c(c1)OCO2
- AC50 [26]: 27.2 µM (active)

Structure (SMILES): CCCN(CCC)C1CCc2cccc(O)c2C1 (stereo not drawn)
- EC50 [15]: 92.5 µM (inactive)
- EC50 [16]: 2.3 µM (active)

Structure (SMILES): O=C(CCC1CCCCC1)Nc1c2c(nn1-c1ccc(F)cc1)CS(=O)(=O)C2
- EC50 [7]: > 20 µM (not active)
- AC50 [27]: 12.6 µM (inconclusive)
- AC50 [28]: 11.2 µM (inconclusive)
- EC50 [8]: > 20 µM (not active)

Structure (SMILES): CCCCN(CC)CCCNC(=O)CC1Oc2ccccc2NC1=O (stereo not drawn)
- EC50 [15]: 92.5 µM (inactive)
- EC50 [16]: 3.3 µM (active)

Structure (SMILES): COc1cccc2sc(N(CCCN(C)C)C(=O)c3sc4ccccc4c3Cl)nc12
- IC50 [29]: > 20 µM (inactive)
- AC50 [30]: 6.13 µM (active)

Structure (SMILES): COc1ccccc1C(=O)NC(CCSC)C(=O)N1CCN(C/C=C/c2ccccc2)CC1 (stereo not drawn)
- AC50 [20]: 4.51 µM (active)
- AC50 [12]: 10.7 µM (active)
- AC50 [13]: 12.8 µM (active)
- AC50 [14]: 2.79 µM (active)

Structure (SMILES): CC(C)(C)OC(=O)NCCCC[C@H](NC(=O)c1[nH]cnc1C(=O)NCc1ccccc1)C(=O)OC(C)(C)C
- IC50 [3]: 10.5 µM (not active)

Structure (SMILES): C[C@H]1CCCCO[C@H](CN(C)Cc2ccc(C(F)(F)F)cc2)[C@@H](C)CN([C@@H](C)CO)C(=O)c2cc(NS(=O)(=O)c3cccs3)ccc2O1
- AC50 [17]: 37.6 µM (active)
- AC50 [18]: > 70 µM (inactive)
- AC50 [19]: 5.95 µM (active)

Structure (SMILES): CC(C)(C)Nc1nc(NN)nc(NC(C)(C)C)n1
- IC50 [11]: 17.9 µM (active)

Structure (SMILES): Cc1ccc(Cn2c(C)nc3c(c2=O)c2nc4ccccc4nc2n3Cc2ccco2)cc1
- CC50 [31]: 29 µM (active)
- IC50 [11]: > 20 µM (inactive)

Structure (SMILES): O=C(c1cccs1)N1CCN(Cc2ccccc2)CC1
- EC50 [15]: 92.4 µM (inactive)
- EC50 [16]: 1.02 µM (active)

Structure (SMILES): Cc1ccc(S(=O)(=O)Nc2ccc3c(c2)CC(=O)N([C@H](C)CO)C[C@H](C)[C@H](CN(C)S(=O)(=O)c2ccccc2)O3)cc1
- AC50 [20]: 0.877 µM (active)
- AC50 [13]: 3.38 µM (active)
- AC50 [14]: 2.46 µM (active)

Structure (SMILES): CC1(C)Nc2cccc3cccc(c23)N1
- IC50 [9]: 21.6 µM (active)
- AC50 [30]: 25.6 µM (active)

Structure (SMILES): CC(C)(C)c1nnc2sc(SC/C(O)=C(\C#N)c3nc4ccccc4[nH]3)nn2c1=O
- IC50 [4]: 4 µM (active)
- IC50 [5]: 40.6 µM (not active)

Structure (SMILES): Nc1ccc(Oc2ccc(Br)cc2)cc1
- AC50 [26]: 0.378 µM (active)
